From the supplement of paper PMC4862054

Tests used:
Details in all cases: incubation time: 72 h
[1] = tested on: BT-474; test: normalised response (% of control), CellTox Green; higher = less cell death (100 = DMSO, 0 = benzethonium chloride kill control)
Procedure, shortened: (§1)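 Two readouts were taken after 72 h: CellTox Green fluorescence (485/520 nm) first, then CellTiter-Glo luminescence after 10 min at room temperature. Breast cancer cell lines had been seeded as 20 µl suspension into 384-well plates holding compound at 5 concentrations in 10-fold steps across a compound-specific 10,000-fold range. Each value is a normalised signal at a single concentration, with plates scaled to 0.1 % DMSO (100) and a positive kill control (0).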

[2] = tested on: BT-549; test: as above
Procedure, shortened: as §1

[3] = tested on: CAL-120; test: as above
Procedure, shortened: as §1

[4] = tested on: CAL-148; test: as above
Procedure, shortened: as §1

[5] = tested on: CAL-51; test: as above
Procedure, shortened: as §1

[6] = tested on: CAL-85-1; test: as above
Procedure, shortened: as §1

[7] = tested on: DU-4475; test: as above
Procedure, shortened: as §1

[8] = tested on: HCC1143; test: as above
Procedure, shortened: as §1

[9] = tested on: HCC1599; test: as above
Procedure, shortened: as §1

[10] = tested on: HCC1937; test: as above
Procedure, shortened: as §1

[11] = tested on: HDQ-P1; test: as above
Procedure, shortened: as §1

[12] = tested on: MCF-10A; test: as above
Procedure, shortened: as §1

[13] = tested on: MDA-MB-231; test: as above
Procedure, shortened: as §1

[14] = tested on: MDA-MB-436; test: as above
Procedure, shortened: as §1

[15] = tested on: MDA-MB-453; test: as above
Procedure, shortened: as §1

[16] = tested on: MDA-MB-468; test: as above
Procedure, shortened: as §1

[17] = tested on: BT-474; test: normalised response (% of control), CellTiter-Glo; higher = more viable cells (100 = DMSO, 0 = benzethonium chloride kill control)
Procedure: (§2)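 DSRT, 72 h incubation, CellTox Green / CellTiter-Glo readout. Signal is normalised to DMSO and benzethonium chloride controls. Value is the normalised response at dose 3.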

[18] = tested on: BT-549; test: as above
Procedure: as §2

[19] = tested on: CAL-120; test: as above
Procedure: as §2

[20] = tested on: CAL-148; test: as above
Procedure: as §2

[21] = tested on: CAL-51; test: as above
Procedure: as §2

[22] = tested on: CAL-85-1; test: as above
Procedure: as §2

[23] = tested on: DU-4475; test: as above
Procedure: as §2

[24] = tested on: HCC1143; test: as above
Procedure: as §2

[25] = tested on: HCC1599; test: as above
Procedure: as §2

[26] = tested on: HCC1937; test: as above
Procedure: as §2

[27] = tested on: HDQ-P1; test: as above
Procedure: as §2

[28] = tested on: Hs578T; test: as above
Procedure: as §2

[29] = tested on: MCF-10A; test: as above
Procedure: as §2

[30] = tested on: MDA-MB-231; test: as above
Procedure: as §2

[31] = tested on: MDA-MB-436; test: as above
Procedure: as §2

[32] = tested on: MDA-MB-453; test: as above
Procedure: as §2

[33] = tested on: MDA-MB-468; test: as above
Procedure: as §2

[34] = tested on: MFM-223; test: as above
Procedure: as §2

[35] = tested on: SK-BR-3; test: as above
Procedure: as §2

[36] = tested on: MFM-223; test: normalised response (% of control), CellTox Green; higher = less cell death (100 = DMSO, 0 = benzethonium chloride kill control)
Procedure, shortened: as §1

[37] = tested on: Hs578T; test: as above
Procedure, shortened: as §1

[38] = tested on: BT-474; test: normalised response (% of control), CellTiter-Glo; higher = more viable cells (100 = DMSO, 0 = benzethonium chloride kill control); remark: listed apart in the source
Procedure, shortened: as §1

[39] = tested on: BT-549; test: as above; remark: listed apart in the source
Procedure, shortened: as §1

[40] = tested on: CAL-120; test: as above; remark: listed apart in the source
Procedure, shortened: as §1

[41] = tested on: CAL-148; test: as above; remark: listed apart in the source
Procedure, shortened: as §1

[42] = tested on: CAL-51; test: as above; remark: listed apart in the source
Procedure, shortened: as §1

[43] = tested on: CAL-85-1; test: as above; remark: listed apart in the source
Procedure, shortened: as §1

[44] = tested on: DU-4475; test: as above; remark: listed apart in the source
Procedure, shortened: as §1

[45] = tested on: HCC1143; test: as above; remark: listed apart in the source
Procedure, shortened: as §1

[46] = tested on: HCC1599; test: as above; remark: listed apart in the source
Procedure, shortened: as §1

[47] = tested on: HCC1937; test: as above; remark: listed apart in the source
Procedure, shortened: as §1

[48] = tested on: HDQ-P1; test: as above; remark: listed apart in the source
Procedure, shortened: as §1

[49] = tested on: Hs578T; test: as above; remark: listed apart in the source
Procedure, shortened: as §1

[50] = tested on: MCF-10A; test: as above; remark: listed apart in the source
Procedure, shortened: as §1

[51] = tested on: MDA-MB-231; test: as above; remark: listed apart in the source
Procedure, shortened: as §1

[52] = tested on: MDA-MB-436; test: as above; remark: listed apart in the source
Procedure, shortened: as §1

[53] = tested on: MDA-MB-453; test: as above; remark: listed apart in the source
Procedure, shortened: as §1

[54] = tested on: MDA-MB-468; test: as above; remark: listed apart in the source
Procedure, shortened: as §1

[55] = tested on: MFM-223; test: as above; remark: listed apart in the source
Procedure, shortened: as §1

[56] = tested on: SK-BR-3; test: as above; remark: listed apart in the source
Procedure, shortened: as §1

COc1ccc(S(=O)(=O)Nc2cccnc2Nc2ccc(O)cc2)cc1 [ABT-751] (100 nM)
normalised response [1]: 92.9% | normalised response [2]: 95.4% | normalised response [3]: 94.7% | normalised response [4]: 104% | normalised response [5]: 98.6% | normalised response [6]: 92.2% | normalised response [7]: 97.4% | normalised response [8]: 69.5% | normalised response [9]: 101% | normalised response [10]: 110% | normalised response [11]: 101% | normalised response [12]: 57% | normalised response [13]: 102% | normalised response [14]: 83.8% | normalised response [15]: 98% | normalised response [16]: 81.9% | normalised response [17]: 99.2% | normalised response [18]: 100% | normalised response [19]: 95.2% | normalised response [20]: 96.6% | normalised response [21]: 88.9% | normalised response [22]: 96.9% | normalised response [23]: 99.6% | normalised response [24]: 99.3% | normalised response [25]: 109% | normalised response [26]: 92.5% | normalised response [27]: 96% | normalised response [28]: 107% | normalised response [29]: 96.6% | normalised response [30]: 101% | normalised response [31]: 98.5% | normalised response [32]: 84.2% | normalised response [33]: 97% | normalised response [34]: 101% | normalised response [35]: 93%

CC(C)(C)c1nc(-c2cccc(NS(=O)(=O)c3c(F)cccc3F)c2F)c(-c2ccnc(N)n2)s1 [Dabrafenib] (25 nM)
normalised response [1]: 103% | normalised response [2]: 98.8% | normalised response [3]: 105% | normalised response [4]: 106% | normalised response [5]: 110% | normalised response [6]: 107% | normalised response [7]: 99.8% | normalised response [8]: 107% | normalised response [9]: 93.3% | normalised response [10]: 94.8% | normalised response [11]: 95.9% | normalised response [12]: 108% | normalised response [13]: 114% | normalised response [14]: 79.1% | normalised response [15]: 105% | normalised response [16]: 119% | normalised response [17]: 99.2% | normalised response [18]: 104% | normalised response [19]: 99.8% | normalised response [20]: 108% | normalised response [21]: 89.9% | normalised response [22]: 96.6% | normalised response [23]: 82.6% | normalised response [24]: 118% | normalised response [25]: 105% | normalised response [26]: 102% | normalised response [27]: 103% | normalised response [28]: 104% | normalised response [29]: 115% | normalised response [30]: 100% | normalised response [31]: 111% | normalised response [32]: 96.7% | normalised response [33]: 94.7% | normalised response [34]: 106% | normalised response [35]: 110%

CO[C@@]12[C@H](COC(N)=O)C3=C(C(=O)C(C)=C(N)C3=O)N1C[C@@H]1N[C@@H]12 [Mitomycin C] (100 nM)
normalised response [1]: 100% | normalised response [2]: 99.5% | normalised response [3]: 101% | normalised response [4]: 60.3% | normalised response [5]: 73.6% | normalised response [6]: 93.3% | normalised response [7]: 95.3% | normalised response [8]: 90% | normalised response [9]: 91.5% | normalised response [10]: 84.9% | normalised response [12]: 81.8% | normalised response [13]: 97% | normalised response [14]: 83.8% | normalised response [15]: 102% | normalised response [36]: 99.2% | normalised response [17]: 95.2% | normalised response [18]: 96.5% | normalised response [19]: 91.8% | normalised response [20]: 89.6% | normalised response [21]: 101% | normalised response [22]: 101% | normalised response [23]: 99% | normalised response [24]: 98.2% | normalised response [25]: 95.7% | normalised response [26]: 93.9% | normalised response [27]: 104% | normalised response [28]: 98.9% | normalised response [29]: 92.2% | normalised response [30]: 93.5% | normalised response [31]: 90.8% | normalised response [32]: 94.1% | normalised response [33]: 91.3% | normalised response [34]: 93.8% | normalised response [35]: 94%

CC1(C)CCC(c2ccc(Cl)cc2)=C(CN2CCN(c3ccc(C(=O)NS(=O)(=O)c4ccc(N[C@H](CCN5CCOCC5)CSc5ccccc5)c(S(=O)(=O)C(F)(F)F)c4)cc3)CC2)C1 [Navitoclax] (100 nM)
normalised response [1]: 99.4% | normalised response [2]: 96.6% | normalised response [3]: 92.1% | normalised response [4]: 100% | normalised response [5]: 94% | normalised response [6]: 93.6% | normalised response [7]: 96.2% | normalised response [8]: 92.1% | normalised response [9]: 101% | normalised response [10]: 67.1% | normalised response [12]: 79.6% | normalised response [13]: 73.8% | normalised response [14]: 72.7% | normalised response [15]: 92% | normalised response [16]: 104% | normalised response [36]: 103% | normalised response [17]: 88.1% | normalised response [18]: 96.7% | normalised response [19]: 87.2% | normalised response [20]: 88% | normalised response [21]: 104% | normalised response [22]: 89.7% | normalised response [23]: 92.9% | normalised response [24]: 95.6% | normalised response [25]: 94.5% | normalised response [26]: 87.9% | normalised response [27]: 96.8% | normalised response [28]: 93.6% | normalised response [29]: 91.4% | normalised response [30]: 91.4% | normalised response [31]: 91.9% | normalised response [32]: 87.7% | normalised response [33]: 83% | normalised response [34]: 96% | normalised response [35]: 88.5%

CC(C)n1cnc2c(NCCc3ccc(O)cc3)nc(-c3csc4ccccc34)nc21 [StemRegenin 1] (1000 nM)
normalised response [1]: 100% | normalised response [2]: -112% | normalised response [3]: 104% | normalised response [4]: 85.1% | normalised response [5]: 118% | normalised response [6]: 118% | normalised response [7]: 107% | normalised response [8]: 119% | normalised response [9]: 96% | normalised response [10]: 89.9% | normalised response [11]: 102% | normalised response [37]: 88.4% | normalised response [12]: 83.1% | normalised response [13]: 114% | normalised response [14]: 110% | normalised response [15]: 110% | normalised response [16]: 137% | normalised response [36]: 81.1% | normalised response [38]: 108% | normalised response [39]: 77.9% | normalised response [40]: 99.9% | normalised response [41]: 99.3% | normalised response [42]: 121% | normalised response [43]: 98.8% | normalised response [44]: 103% | normalised response [45]: 110% | normalised response [46]: 111% | normalised response [47]: 95.4% | normalised response [48]: 89.6% | normalised response [49]: 105% | normalised response [50]: 94% | normalised response [51]: 110% | normalised response [52]: 100% | normalised response [53]: 102% | normalised response [54]: 100% | normalised response [55]: 93.8% | normalised response [56]: 96.5%
